{
  "source": "paper PMC10496123",
  "about": "“Potent Antifungal Activity of Penta-O-galloyl-β-D-Glucose against Drug-Resistant Candida albicans, Candida auris, and Other Non-albicans Candida Species” (ACS Infectious Diseases, 2023)",
  "key": {"C. auris CDC381": {"system": "C. auris CDC381", "experiment": "Iron supplementation growth inhibition assay", "type": "cell-based, Candida auris", "settings": "10 mM iron (II) or iron (III); PGG 4–16 μg mL^–1; 48 h", "protocol": "For iron supplementation assays, growth inhibition assays were performed by microbroth dilution following the guidelines set by the CLSI.[58] A solution of iron (II) sulfate and iron (III) sulfate (VWR) was dissolved in deionized water to a concentration of 10 mM and added to treated wells at the beginning of incubation. Growth inhibition was measured after 48 h. Percent growth inhibition was determined by comparing treatments to vehicle controls. Iron supplementation experiments were repeated in duplicate with three technical replicates per treatment and on different days."}, "mice": {"system": "mice", "settings": "20 mg/kg/day orally in mice; cited from earlier work"}, "humans": {"system": "humans", "settings": "balloon catheter, 3 mg/mL over 25 mL; cited from earlier work"}, "MRSA (various strains)": {"system": "MRSA (various strains)", "settings": "antibacterial; possibly iron chelation; cited from earlier work"}, "[1]": {"system": "Staphylococcus aureus (various strains)", "set-up": "method as in doi:10.1016/j.foodchem.2010.04.072", "settings": "antibacterial; possibly iron chelation; cited from earlier work"}, "[2]": {"settings": "cited from earlier work"}, "SK-HEP-1 cells": {"system": "SK-HEP-1 cells", "set-up": "method as in PMID 11675148", "settings": "inhibition of proliferation; cited from earlier work"}, "C. albicans 90028": {"system": "C. albicans 90028", "experiment": "Media supplementation (Mg, Ca, Mn, Zn) growth inhibition assay", "type": "cell-based, Candida albicans", "protocol": "For media supplementation experiments, magnesium sulfate (Alfa Aesar), manganese sulfate, zinc sulfate, and calcium chloride (Ward Science) were dissolved in RPMI-1640 media and, after 24 h, added at a final concentration of 1 mM. Growth inhibition was measured 24 h after media supplementation. Percent growth inhibition was determined by comparing treatments to vehicle controls. Media supplementation experiments were repeated in triplicate with four technical replicates per treatment and on different days. page 6: Figure S5. Effect of supplemental cations on growth inhibition of penta-O-galloyl- β-D-glucose against C. albicans. C. albicans.90028 was treated with PGG alone and in combination with 1 mM magnesium (Mg2+) or 1 mM calcium (Ca2+). The data are plotted as mean % growth inhibition ± SD as compared to vehicle controls from two independent experiments. Dotted line represents 90% growth inhibition. S6 (1 picture or pasted object on this page, not shown here) page 7: Figure S6. Effect of supplemental metal ions on growth inhibition of penta-O- galloyl-β-D-glucose against C. albicans. C. albicans 90028 was treated with PGG alone and in combination with 1 mM manganese (Mn2+) or 1 mM zinc (Zn2+). The data are plotted as mean % growth inhibition ± SD as compared to vehicle controls from two independent experiments . Dotted line represents 90% growth inhibition . Statistical analysis was done using 2 -way ANOVA with multiple comparisons. The symbol (*) […] S7 (1 picture or pasted object on this page, not shown here)"}, "Hek293 cells": {"system": "Hek293 cells", "experiment": "CellTiter-Glo cell viability/proliferation (relative ATP)", "type": "cell-based", "settings": "Homo sapiens, HEK293, 24 h; read-out: IC50 (viable cell number reduced by 50%, relative ATP)", "protocol": "(§1) Hek293 cells were purchased from BEI Resources. HaCaT cells were purchased from ATCC. HepG2 cells were provided by Dr. Edward Morgan (Emory University). Mammalian cell cultures were maintained in Dulbecco’s modified Eagle’s medium with L-glutamine and 4.5 g L^–1 glucose (Corning) supplemented with 10% fetal bovine serum (Avantor) and a 100× combination solution of 10,000 IU mL^–1 penicillin and 10,000 μg mL^–1 streptomycin (Corning) at 37 °C, 5% CO2. Mammalian cultures at 70–80% confluency were used for cell viability and cytotoxicity experiments.\n(§2) ATP content as a marker for the relative viable cell number was measured with the CellTiter-Glo Luminescent Cell Viability assay (Promega Corporation). The mammalian culture was standardized at 4 × 10^3 cells per 100 μL in a Costar 3610 white plate, clear bottom 96-well plates (Corning). Cells were allowed to attach and incubate for 24 h before growth media was replaced with treatment media (PGG, 16–512 μg mL^–1) or an equivalent volume of DMSO, followed by incubation for 24 h. After incubation with treatment, plates were equilibrated to room temperature for 1 h, and then 100 μL of CellTiter-Glo reagent was added to each well and mixed for 2 min. Plates were allowed to incubate at room temperature for 10 min before luminosity was measured with an integration time of 1 s via a BioTek Cytation3 plate reader. The relative viable cell number was measured by comparing treatment samples to untreated controls. Experiments were repeated in triplicate with three technical replicates per treatment and on different days."}, "HaCaT cells": {"system": "HaCaT cells", "experiment": "CellTiter-Glo cell viability/proliferation (relative ATP)", "type": "cell-based", "settings": "Homo sapiens, 24 h, read-out: IC50 (viable cell number, relative ATP)", "protocol": "as §1, §2"}, "HepG2 cells": {"system": "HepG2 cells", "experiment": "CellTiter-Glo cell viability/proliferation (relative ATP)", "type": "cell-based", "settings": "Homo sapiens, HepG2, 24 h; read-out: IC50 (viable cell number reduced by 50%, relative ATP)", "protocol": "as §1, §2"}, "[3]": {"system": "C. albicans wild type (SN95, SN152) and ire1Δ/Δ, hap43Δ/Δ, rim101Δ/Δ", "experiment": "microbe, parasite or virus in culture", "type": "cell-based, Candida albicans", "settings": "for MIC90: Candida albicans, 48 h, 30 °C"}, "C. albicans": {"system": "C. albicans", "experiment": "Ergosterol binding assay (growth inhibition with exogenous ergosterol)", "type": "cell-based, Candida albicans", "settings": "80 μg mL^–1 exogenous ergosterol, 1×–4× MIC, 24 h", "protocol": "Ergosterol binding was measured using a previously described method,[60] with some modifications. Briefly, ergosterol (TCI) was pulverized with a sterile pestle and mortar and then dissolved in 100% ethanol. The resultant emulsion was warmed at 37 °C for 15 min and then sonicated for 45 min prior to use. […] The negative control was untreated culture. A media blank was used to monitor for contamination. Experiments were repeated in triplicate with three technical replicates per treatment and on different days. page 5: Figure S4. Growth inhibition of penta-O-galloyl-β-D-glucose against C. albicans not affected by additional ergosterol. C. albicans was treated with PGG or […] mL-1). After 24 hours, treatment groups were measured for growth inhibition. The data are plotted as mean % growth inhibition ± SD as compared to vehicle controls from three independent experiments . Dotted line represents 90% growth inhibition . S5 (1 picture or pasted object on this page, not shown here)"}},
  "note": "Where “and” joins values, the source holds several entries; their conditions need not be identical. Identical values can stand only once. Entries after “also recorded” stand apart in the source; their conditions may differ.",
  "data": [
    {"smiles": "O=C(OC[C@H]1O[C@@H](OC(=O)c2cc(O)c(O)c(O)c2)[C@H](OC(=O)c2cc(O)c(O)c(O)c2)[C@@H](OC(=O)c2cc(O)c(O)c(O)c2)[C@@H]1OC(=O)c1cc(O)c(O)c(O)c1)c1cc(O)c(O)c(O)c1", "note": "[PGG, penta-O-galloyl-β-D-glucose]", "values": [
      {"measurement": "Reduction of the growth inhibitory activity on iron supplementation", "setting": "C. auris CDC381", "value": "80–100%"},
      {"measurement": "Tolerability", "setting": "mice", "value": "tolerated without ill effects"},
      {"measurement": "Safety in humans", "setting": "humans", "value": "safely"},
      {"measurement": "IC50/EC50", "setting": "MRSA (various strains)", "value": "16 to 32", "unit": "µg/mL"},
      {"measurement": "IC50/EC50", "setting": "[1]", "value": "16 to 32", "unit": "µg/mL"},
      {"measurement": "Efflux ratio", "setting": "[2]", "value": "high efflux ratio"},
      {"measurement": "IC50/EC50", "setting": "SK-HEP-1 cells", "value": "25 to 50", "unit": "µM"},
      {"measurement": "Effect of cation treatment (calcium, magnesium) on growth inhibition", "setting": "C. albicans 90028; 1 mM Mg2+ or Ca2+", "value": "no significant effect"},
      {"measurement": "Effect of manganese supplementation on growth inhibition", "setting": "C. albicans 90028; 1 mM Mn2+, at 0.5× MIC of PGG", "value": "minor effect"},
      {"measurement": "Effect of zinc supplementation on growth inhibition", "setting": "C. albicans 90028; 1 mM Zn2+", "value": "no effect"},
      {"measurement": "IC50", "setting": "Hek293 cells", "value": "64 µg/mL and 68 µM"},
      {"measurement": "IC50", "setting": "HaCaT cells", "value": "32 µg/mL and 34 µM"},
      {"measurement": "IC50", "setting": "HepG2 cells", "value": "68 µM and 64 µg/mL"},
      {"measurement": "MIC90", "setting": "[3]; Wild type (SN95)", "value": "> 20", "unit": "µg/mL"},
      {"measurement": "MIC90", "setting": "[3]; Wild type (SN152)", "value": "> 20", "unit": "µg/mL"},
      {"measurement": "MIC90", "setting": "[3]; hap43Δ/Δ", "value": 0.625, "unit": "µg/mL"},
      {"measurement": "MIC90", "setting": "[3]; ire1Δ/Δ", "value": 0.625, "unit": "µg/mL"},
      {"measurement": "MIC90", "setting": "[3]; rim101Δ/Δ", "value": 0.625, "unit": "µg/mL"},
      {"measurement": "Effect of deletion of IRE1, HAP43 and RIM101 on sensitivity", "setting": "[3]; mutants versus wild type", "value": "hypersensitive; also recorded: hypersensitivity"},
      {"measurement": "Growth inhibitory activity with additional ergosterol", "setting": "C. albicans", "value": "not affected"}
    ]}
  ]
}
